What was measured:
interleukin-12 (IL-12) = conditions: reported by Asari et al. (Xu H et al. (2005)); cited from earlier work
MRL-lpr/lpr mouse = conditions: administration of L4; Xu H et al. (2005); cited from earlier work
[1] = system: rat spinal cord injury model; assay: Hind limb motor function (BBB scale) in rat spinal cord injury model, crush method with forceps; assay type: in vivo; conditions: 60 μg/animal into the dura, seventh day after spinal cord injury, compared with physiological saline-administered group
Protocol: (§1) A spinal cord injury model (crush model with forceps) was prepared as described below. Twelve-week-old male Wistar rats were used as experimental animals. The animals were shaved from neck to hip with an electric clipper under pentobarbital anesthesia (50 mg/kg body weight) and the skin was cleansed with 70% ethanol and Isodine (product of Meiji Seika Kaisha, Ltd.). After dorsal skin incision, the thoracic spine from T5 to T10 was exposed, the sixth thoracic spine (T6 thoracic spine) was subjected to hemi-laminectomy, and a small incision was made on the dura. Following local anesthesia with Xylocaine (Astra Zeneca), a forceps (with the tip trimmed to 0.3 mm) was inserted at the position of T6 until its tip reached the vertebral body, and the spinal cord was crushed by sandwiching it from both sides for 10 sec. […]
After injury of the spinal cord, the hind limb motor function was assessed daily for 7 days by two independent blind examiners according to the method of Basso et al. (refer to Basso D M et al (1995), (1996)) using Basso-Beeattie-Bresnahan (BBB) Scale, and their average score was taken as a final assessment score. […]
The BBB score was evaluated using Tukey's nonparametric multiple comparison test.

[2] = system: rat spinal cord injury model; assay: Spinal cord evoked potential (SCEP) in rat spinal cord injury model, crush method with forceps; assay type: in vivo; conditions: 60 μg/animal into the dura, seventh day after spinal cord injury, compared with saline-administered group
Protocol: as §1
On the seventh day after the injury of the spinal cord, endotracheal intubation was performed into the experimental animal under halothane anesthesia (4.0% at the beginning, 1.0% during maintenance). […] Catheter electrodes were inserted into the experimental animal from the space between the second/third cervical vertebrae and the space between the 13th thoracic vertebra/first lumbar vertebra, and spinal cord evoked potential (SCEP) was measured with an electromyograph (Counterpoint, Dantec) after applying a supramaximal stimulus (stimulus frequency; 1 Hz, duration; 0.05 msec). […]

## CC(=O)N[C@H]1C(O)O[C@H](COS(=O)(=O)O)[C@@H](O[C@@H]2O[C@H](COS(=O)(=O)O)[C@H](O)[C@H](O)[C@H]2O)[C@@H]1O (stereo partly drawn) [L4, Gal(6S)β1-4GlcNAc(6S)]
interleukin-12 (IL-12)
  effect on interleukin-12 (IL-12) expression: has an inhibitory effect on interleukin-12 (IL-12) expression
MRL-lpr/lpr mouse
  IL-12 concentration in the blood: reduces IL-12 concentration in the blood
  cell death of T lymphocytes: induces cell death of T lymphocytes
  size of lymphatic organs (lymph node and spleen): causes shrinking of lymphatic organs
[1]
  hind limb motor function (BBB score): significant recovery in hind limb motor function (P<0.001)
[2]
  spinal cord evoked potential (SCEP) amplitude: a tendency for a recovery in the SCEP amplitude

Reference: patent US20070167399A1, “Therapeutic drug for traumatic neural disease (disorder) and/or motor function disorder” (Glycoscience Laboratories, Inc., priority 2006, published 2007)
